One test addresses T1, Phosphodiesterase 4 (Homo sapiens, UniProt P27815+Q08499+Q07343+Q08493). The experiment in a line: Inhibition of PDE4 in human U937 cells at 1 uM after 30 mins by electrochemiluminescence based immunoassay. Particulars: U-937. The format is cell-based.
Take `COc1ccc(CCc2c(C#N)c(-c3ccccc3)nn2C)cc1OC`: the inhibition turned out to be 14%.

For the compound `CCn1nc(-c2ccccc2)c(C#N)c1CCc1cccc2ccccc12`, the inhibition is -3%.

`Cc1nn(C)c(CCc2ccccc2)c1C#N`: the inhibition was 2.1%.

With `CCn1nc(-c2ccccc2)c(C#N)c1CCc1ccccc1C(=O)O`, the inhibition came to 11%.

`Cc1nn(C)c(/C=C/c2ccccc2)c1C#N`: the inhibition turned out to be 1.3%.

Regarding `CCOC(=O)Cn1nc(C)c2c(C)n(-c3cccc([N+](=O)[O-])c3)nc2c1=O`, the inhibition amounted to 64.1%.

As to `CCn1nc(COC)c2cn(-c3ccccc3Cl)nc2c1=O`, the inhibition was 65%.

`CCn1nc(-c2ccncc2)c(C#N)c1CCc1cccc2ccccc12`: the inhibition came to 2.8%.

Turning to `CCn1nc(C(=O)OC(C)C)c2c(C)n(-c3cccc([N+](=O)[O-])c3)nc2c1=O`, the inhibition is 6%.

For `CCn1nc(C(=O)O)c2c(C)n(-c3cccc([N+](=O)[O-])c3)nc2c1=O`, the inhibition is 2%.

For the compound `CCn1nc(-c2ccccc2)c2c(C)n(-c3cccc([N+](=O)[O-])c3)nc2c1=O`, the inhibition came to 47%.

With `CCOC(=O)c1nn(CC)c(=O)c2nn(-c3cccc(CO)c3)c(C)c12`, the inhibition stood at 39%.

In the case of `COCc1nn(CC2CC2)c(=O)c2nn(-c3ccccc3Cl)cc12`, the inhibition is 19%.

For `CCN(C)C(=O)c1nn(CC)c(=O)c2nn(-c3cccc([N+](=O)[O-])c3)c(C)c12`, the inhibition is -2%.

With `CCOC(=O)Cn1nc(-c2ccccc2)c2c(C)n(-c3cccc([N+](=O)[O-])c3)nc2c1=O`, the inhibition is 1%.

Take `CCn1nc(-c2nnc(C)o2)c2c(C)n(-c3cccc([N+](=O)[O-])c3)nc2c1=O`: the inhibition amounted to 48%.

Take `CCn1nc(C(=O)NC)c2c(C)n(-c3cccc([N+](=O)[O-])c3)nc2c1=O`: the inhibition turned out to be 14%.

Take `CCn1nc(C(=O)Nc2c(Cl)cncc2Cl)c2c(C)n(-c3ccccc3)nc2c1=O`: the inhibition came out at 3%.

Regarding `CCn1nc(-c2ccncc2)c(C#N)c1/C=C/c1cccc2ccccc12`, the inhibition was found to be 19%.

On to `CCOC(=O)CCn1nc(C)c2c(C)n(-c3cccc([N+](=O)[O-])c3)nc2c1=O`, for which the inhibition amounted to 4%.

With `CCn1nc(C#N)c2c(C)n(-c3c(Cl)cccc3Cl)nc2c1=O`, the inhibition came out at 2%.

On to `CCn1nc(CO)c2c(C)n(-c3ccccc3Cl)nc2c1=O`, for which the inhibition was -4%.

For `CCn1nc(-c2ccccc2)c(C#N)c1/C=C/c1cccc2ccccc12`, the inhibition is 35%.

Consider `CCn1nc(COC)c2c(C)n(-c3ccccc3Cl)nc2c1=O`, for which the inhibition was found to be 41%.

For the compound `CCn1nc(C(=O)N(C)C)c2c(C)n(-c3cccc([N+](=O)[O-])c3)nc2c1=O`, the inhibition was 4%.

Consider `CCn1nc(-c2ccccc2)c(C#N)c1/C=C/c1ccccc1C(=O)O`, for which the inhibition was 6%.

Take `CCCOC(=O)c1nn(CC)c(=O)c2nn(-c3cccc([N+](=O)[O-])c3)c(C)c12`: the inhibition was determined as 14%.

Turning to `CCOC(=O)CCn1nc(-c2ccccc2)c2c(C)n(-c3cccc([N+](=O)[O-])c3)nc2c1=O`, the inhibition came to 1%.

Regarding `CCn1nc(C#N)c2c(C)n(-c3ccccc3Cl)nc2c1=O`, the inhibition was -2%.

The next test addresses T1, Phosphodiesterase 4. The experiment in a line: Inhibition of PDE4 in human U937 cells after 30 mins by electrochemiluminescence based immunoassay. The class given is cell-based. As to conditions: u-937.
Consider `CCOC(=O)c1nn(CC)c(=O)c2nn(-c3ccccc3)c(C)c12`, for which the half-inhibitory concentration (IC50) worked out at 300 nM.

Take `CCOC(=O)c1nn(CC)c(=O)c2nn(-c3cc(C(=O)OC)ccc3C)c(C)c12`: the 50% inhibitory concentration (IC50) came out at 876 nM.

`CCOC(=O)c1nn(CC2CC2)c(=O)c2nn(-c3ccccc3Cl)c(C)c12` returned a concentration for half-maximal inhibition (IC50) of 374 nM.

`CCOC(=O)c1nn(CC)c(=O)c2nn(-c3c(Cl)cccc3Cl)c(C)c12` registered an IC50 of 237 nM.

For the compound `CCn1nc(C(=O)OC)c2c(C)n(-c3cccc([N+](=O)[O-])c3)nc2c1=O`, the half-maximal inhibitory concentration (IC50) worked out at 46 nM.

In the case of `CCOC(=O)c1nn(CC)c(=O)c2nn(-c3ccccc3C)c(C)c12`, the IC50 came out at 59 nM.

In turn, `CCOC(=O)c1nn(CC)c(=O)c2nn(Cc3ccc([N+](=O)[O-])cc3)c(C)c12` yielded an IC50 of 1140 nM.

The compound `CCOC(=O)c1nn(CC)c(=O)c2nn(-c3cccc([N+](=O)[O-])c3)c(C)c12` came in with a 50% inhibitory concentration (IC50) of 75 nM.

Take `CCOC(=O)c1nn(CC)c(=O)c2nn(Cc3ccc(C(=O)OC)cc3)c(C)c12`: the IC50 stood at 1200 nM.

Turning to `CCn1nc(C)c2c(C)n(-c3cccc([N+](=O)[O-])c3)nc2c1=O`, the IC50 stood at 385 nM.

Compound `CCCn1nc(C(=O)OCC)c2c(C)n(-c3cccc([N+](=O)[O-])c3)nc2c1=O` came in with an IC50 of 72 nM.

In turn, `CCOC(=O)c1nn(CC)c(=O)c2nn(-c3ccccc3Cl)c(C)c12` came in with a 50% inhibitory concentration (IC50) of 32 nM.

In the case of `CCOC(=O)c1nn(CC)c(=O)c2nn(-c3cc(C(N)=O)ccc3Cl)c(C)c12`, the concentration for half-maximal inhibition (IC50) is on record as 757 nM.

The target in the next test is T1, Phosphodiesterase 4. The experiment in a line: Inhibition of PDE4 in human U937 cells at 10 uM after 30 mins by electrochemiluminescence based immunoassay. The format is cell-based. As to conditions: U-937.
Regarding `CCOC(=O)c1nn(CC)c(=O)c2nn(Cc3ccc(C#N)cc3)c(C)c12`, the inhibition worked out at 5%.

Another test relates to PBMC. The experiment in a line: Antiinflammatory activity in human PBMC assessed as inhibition of LPS-induced TNFalpha production. The class given is functional, cell-based.
Conditions: not given
Regarding `CCOC(=O)c1nn(CC)c(=O)c2nn(-c3ccccc3C)c(C)c12`, the half-inhibitory concentration (IC50) is 127 nM.

With `CCOC(=O)c1nn(CC)c(=O)c2nn(-c3cccc([N+](=O)[O-])c3)c(C)c12`, the concentration for half-maximal inhibition (IC50) is 383 nM.

(Values after ChEMBL document CHEMBL1157770, “Functionalized pyrazoles and pyrazolo[3,4-d]pyridazinones: Synthesis and evaluation of their phosphodiesterase 4 inhibitory activity” (Bioorg Med Chem, 2010).)
